Experimental data from patent publication US7273880B2, “Selective NPY (Y5) antagonists” (H. Lunbeck A/S, priority 1999, dated 2007).
Where two headings read alike, the source gives them in different places.

Experiments:
[1] = molecular target: T1, human Y5 receptor (hNPY-5) (Homo sapiens, UniProt Q15761); assay: Radioligand binding to membranes, cloned human Y5 receptor
T1 construct: expressed in transfected cells; host or cells: mouse fibroblast LM(tk-) cells, e.g. L-hY5-7 (ATCC CRL-11995)
T1 sequence (Q15761 1-445): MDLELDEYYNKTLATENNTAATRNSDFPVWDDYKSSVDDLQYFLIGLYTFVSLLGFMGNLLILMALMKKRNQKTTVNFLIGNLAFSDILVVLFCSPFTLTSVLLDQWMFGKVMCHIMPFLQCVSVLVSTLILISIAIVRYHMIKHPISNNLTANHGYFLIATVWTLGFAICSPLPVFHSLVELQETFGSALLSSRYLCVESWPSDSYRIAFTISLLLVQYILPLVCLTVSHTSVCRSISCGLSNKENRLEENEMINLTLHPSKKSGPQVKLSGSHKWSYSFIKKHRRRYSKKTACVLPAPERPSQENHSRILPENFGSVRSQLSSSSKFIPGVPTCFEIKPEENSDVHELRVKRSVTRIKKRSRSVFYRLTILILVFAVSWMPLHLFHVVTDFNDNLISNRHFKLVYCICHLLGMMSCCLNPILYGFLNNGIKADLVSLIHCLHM
In short: (§1)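 Competition binding on membranes from stably transfected 293 or LM(tk-) cells, with 0.08 nM ¹²⁵I-PYY in pH 7.4 HEPES buffer plus 0.1% BSA, 120 min at 30 °C, filtration and counting. Nonspecific binding defined by 300 nM human NPY, or 100 nM human PP for Y4; nonlinear regression.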

[2] = molecular target: hNPY-1,2,4 (human Y1, Y2, Y4 receptors); assay: Radioligand binding to membranes, cloned human Y1, Y2 and Y4 receptors; conditions: one bound given for all three
In short: as §1

[3] = molecular target: T2, human Y5 receptor (h NPY-5) (Homo sapiens, UniProt Q15761); assay: Functional assay: radioimmunoassay of cAMP; format: cell-based; conditions: functional antagonism, forskolin-stimulated cAMP, cells stably transfected with human Y5
T2 construct: expressed in transfected cells; host or cells: mouse fibroblast LM(tk-) cells, e.g. L-hY5-7 (ATCC CRL-11995)
T2 sequence (Q15761 1-445): T1 sequence (Q15761 1-445)
Experimental: LM(tk-) cells stably transfected with the human Y5 receptor were routinely converted from an adherent monolayer to a viable suspension. Adherent cells were harvested with trypsin at the point of confluence, resuspended in a minimal volume of complete DMEM for a cell count, and further diluted to a concentration of 10^6 cells/ml in suspension media (10% bovine calf serum, 10% 10× Medium 199 (Gibco), 9 mM NaHCO3, 25 mM glucose, 2 mM L-glutamine, 100 units/ml penicillin/100 μg/ml streptomycin, and 0.05% methyl cellulose). The cell suspension was maintained in a shaking incubator at 37° C., 5% CO2 for 24 hours. Membranes harvested from cells grown in this manner may be stored as large, uniform batches in liquid nitrogen. Alternatively, cells may be returned to adherent cell culture in complete DMEM by distribution into 96-well microtiter plates coated with poly-D-lysine (0.01 mg/ml) followed by incubation at 37° C., 5% CO2 for 24 hours. Cells prepared in this manner yielded a robust and reliable NPY-dependent response in cAMP radio-immunoassays as further described hereinbelow.
Stably transfected cells were seeded into 96-well microtiter plates and cultured until confluent. To reduce the potential for receptor desensitization, the serum component of the media was reduced to 1.5% for 4 to 16 hours before the assay. Cells were washed in Hank's buffered saline, or HBS (150 mM NaCl, 20 mM HEPES, 1 mM CaCl2, 5 mM KCl, 1 mM MgCl2, and 10 mM glucose) supplemented with 0.1% bovine serum albumin plus 5 mM theophylline and pre-equilibrated in the same solution for 20 min at 37° C. in 5% CO2. Cells were then incubated 5 min with 10 μM forskolin and various concentrations of receptor-selective ligands. The assay was terminated by the removal of HBS and acidification of the cells with 100 mM HCl. Intracellular cAMP was extracted and quantified with a modified version of a magnetic bead-based radioimmunoassay (Advanced Magnetics, Cambridge, Mass.). The final antigen/antibody complex was separated from free ^125I-cAMP by vacuum filtration through a PVDF filter in a microtiter plate (Millipore, Bedford, Mass.). Filters were punched and counted for ^125I in a Packard gamma counter. Binding data were analyzed using nonlinear regression and statistical techniques available in the GraphPAD Prism package (San Diego, Calif.).

satiated rats = conditions: direct injection into the hypothalamus, 4-hour period; cited from earlier work
[4] = binding Ki as repeated in Table 4, read-out: Ki (h NPY-5)
[5] = cloned human NPY Y5 receptor, radioligand competition binding, Tables 1-3, read-out: Ki, nM hNPY-5

Row | Ki [1, 4] | Ki [1, 5] | Ki [2] | Kb [3] | melting point | Molecule | increase of food intake (satiated rats)
1 | 4.5 nM | 4.5 nM | > 10000 nM | 3.16 nM | – | O=S(=O)(NCCCCCNc1nc2c(s1)CCCc1ccc(F)cc1-2)c1ccccc1F [Example 3, 1-Aza-9-fluoro-2-(5-(2-fluorophenyl)sulfonylamino)-pentylamino-4,5-dihydro-3-thia-benzo[e]azulene] | –
2 | 19.5 nM | 19.5 nM | > 10000 nM | 2.51 nM | – | O=S(=O)(NCCCCCNc1nc2c(s1)CCCc1ccc(F)cc1-2)c1cccc2ccccc12 [Example 4, 1-Aza-9-fluoro-4,5-dihydro-2-(5-(1-naphthyl)sulfonyl-amino)-pentylamino-3-thia-benzo[e]azulene] | –
3 | 0.3 nM | 5.8 nM | > 10000 nM | 5.01 nM | – | O=S(=O)(CC(F)(F)F)NCCCCCNc1nc2c(s1)CCCc1ccc(F)cc1-2 [Example 20, 1-Aza-9-fluoro-2-(5-(2-trifluoroethyl)sulfonylamino)-pentylamino-4,5-dihydro-3-thia-benzo [e]azulene] | –
4 | 4.4 nM | 4.4 nM | > 10000 nM | 15.8 nM | – | CS(=O)(=O)N[C@H]1CC[C@H](CNc2nc3c(s2)CCCc2ccc(F)cc2-3)CC1 [Example 43, trans-N2-(4-Methylsulfonylamino)cyclohexylmethyl-9-fluoro-5,6-dihydro-4H-benzo[6,7]cyclohepta[d][1,3]-thiazol-2-amine] | –
5 | 2.3 nM | 2.3 nM | > 10000 nM | 1.58 nM | 180 to 182 °C | NS(=O)(=O)N[C@H]1CC[C@H](CNc2nc3c(s2)CCCc2ccc(F)cc2-3)CC1 [Example 44, trans-N2-(4-Aminosulfonylamino)cyclohexylmethyl-9-fluoro-5,6-dihydro-4H-benzo[6,7]cyclohepta[d][1,3]-thiazol-2-amine] | –

Continued, molecule first:

Row | Molecule | Ki [1, 4] | Ki [1, 5] | Ki [2] | Kb [3] | melting point | increase of food intake (satiated rats)
6 | CN(C)S(=O)(=O)NC[C@H]1CC[C@H](Nc2nc3c(s2)CCCc2ccc(F)cc2-3)CC1 [Example 1, trans-N2-(4-Dimethylaminosulfonylaminomethyl)-cyclohexyl-9-fluoro-5,6-dihydro-4H-benzo[6,7]-cyclohepta[d][1,3]-thiazol-2-amine] | 2.1 nM | 2.1 nM | > 10000 nM | 12.6 nM | 60 to 65 °C | –
7 | CS(=O)(=O)NC[C@H]1CC[C@H](Nc2nc3c(s2)CCCc2ccc(F)cc2-3)CC1 [Example 11, trans-1-Aza-9-fluoro-4,5-dihydro-2-(4-(methyl-sulfonylamino-methyl)cyclohexyl)amino-3-thia-benzo[e]azulene] | 6.4 nM | 6.4 nM | > 10000 nM | 3.16 nM | – | –
8 | CS(=O)(=O)N[C@H]1CC[C@H](CNc2nc3c(s2)CCOc2ccccc2-3)CC1 [Example 50, trans-N2-(4-Methylsulfonylamino)cyclohexylmethyl-4,5-dihydro-benzo[2,3]oxepino[4,5-d][1,3]thiazol-2-amine] | 15.3 nM | 15.3 nM | – | 7.94 nM | 64 to 67 °C | –
9 | NPY: peptide neurotransmitter neuropeptide Y, a 36 amino acid member of the pancreatic polypeptide family | – | – | – | – | – | up to 10 fold
